Measurements taken from PMC11999303 (iScience, 2025).
“Also recorded” adds a separate entry of the source.

Target: I-A^b (Mus musculus, UniProt P14434+P14483)
Assay: MHC2-SCALE peptide exchange with 2D-LCMS detection on I-A^b
Format: binding
Conditions: single peptide, lowmCLIP-I-A^b, standard exchange pH 5, 2D-LCMS

Chain of I-A^b (P14434 whole entry, looked up): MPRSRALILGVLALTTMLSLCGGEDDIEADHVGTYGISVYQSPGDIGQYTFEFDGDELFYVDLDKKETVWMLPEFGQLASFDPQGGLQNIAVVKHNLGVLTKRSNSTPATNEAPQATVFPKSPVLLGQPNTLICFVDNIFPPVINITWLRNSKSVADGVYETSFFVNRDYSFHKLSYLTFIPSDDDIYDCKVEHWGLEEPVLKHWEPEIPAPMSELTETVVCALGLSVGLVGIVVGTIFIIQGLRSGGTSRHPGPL
Chain of I-A^b (P14483 whole entry, looked up): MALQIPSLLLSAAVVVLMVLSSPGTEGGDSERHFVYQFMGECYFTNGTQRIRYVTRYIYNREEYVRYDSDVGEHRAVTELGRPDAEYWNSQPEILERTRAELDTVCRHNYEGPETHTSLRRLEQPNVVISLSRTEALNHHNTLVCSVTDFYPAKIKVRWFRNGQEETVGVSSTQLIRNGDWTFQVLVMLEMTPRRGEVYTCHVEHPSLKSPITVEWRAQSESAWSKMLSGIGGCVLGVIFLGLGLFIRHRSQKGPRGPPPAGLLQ

Row | Sequence | peptide exchange / binding to I-A^b by MHC2-SCALE, in words
1 | LQPFQLAFGHLVNRQV [M46-B] | complete peptide exchange
2 | LPLQPFQLAFGHLVN [M46-A] | complete peptide exchange

The remaining lines, values ahead:

Row | peptide exchange / binding to I-A^b by MHC2-SCALE, in words | Sequence
3 | binders | DRGVIMSAHSLTNSS [M57-A]
4 | bound; also recorded: strong binder | HYKYMCNSSCMGVMN [M112-A]
5 | binders | VIMSAHSLTNSSSDF [M57-B]
